Assay results as given in patent US12568972B2, “Pyridazinol compounds and derivatives, preparation methods, herbicidal compositions and applications thereof” (Qingdao Kingagroot Chemical Compound Co., Ltd., priority 2018, dated 2026).

Legend:
Test in all cases: Post-emergence test, weed control effect
Format in all cases: in vivo
Settings in all cases: after 3 weeks
Amaranthus retroflexus = test system: Amaranthus retroflexus
Summary of the method: (§1)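 Activity is expressed as a level from 0 (no effect) to 10 (plant dead), each step matching a further 10% fresh-weight inhibition, assessed 3 weeks post-treatment. Treatment: spray at 2-3 leaf stage of pot-grown plants, compound in acetone, Tween-80 and water with 80% vegetable oil methyl ester synergist at 1500 g/ha.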

Chenopodiaceae = test system: Chenopodiaceae
Summary of the method: as §1

Rorippa indica = test system: Rorippa indica
Summary of the method: as §1

Veronica polita = test system: Veronica polita
Summary of the method: as §1

COc1ccc(C(=O)Oc2cc(C(F)(F)F)nnc2-c2ccc(F)c(F)c2)cc1 [Compound 1-84]
10: weed control effect, Amaranthus retroflexus (activity level) (Amaranthus retroflexus; Dose 3000 g/ha) | weed control effect, Chenopodiaceae (activity level) (Chenopodiaceae; Dose 3000 g/ha) | weed control effect, Rorippa indica (activity level) (Rorippa indica; Dose 3000 g/ha) | weed control effect, Veronica polita (activity level) (Veronica polita; Dose 3000 g/ha)

Cc1ccc(-c2nnc(C(F)(F)F)cc2OC(=S)OCCC(C)C)c([N+](=O)[O-])c1 [Compound 1-159]
10: weed control effect, Amaranthus retroflexus (activity level) (Amaranthus retroflexus; Dose 3000 g/ha) | weed control effect, Chenopodiaceae (activity level) (Chenopodiaceae; Dose 3000 g/ha) | weed control effect, Rorippa indica (activity level) (Rorippa indica; Dose 3000 g/ha) | weed control effect, Veronica polita (activity level) (Veronica polita; Dose 3000 g/ha)

O=C(Oc1cc(C(F)(F)F)nnc1-c1ccc(F)c(F)c1)c1ccccc1 [Compound 1-79]
10: weed control effect, Amaranthus retroflexus (activity level) (Amaranthus retroflexus; Dose 3000 g/ha) | weed control effect, Chenopodiaceae (activity level) (Chenopodiaceae; Dose 3000 g/ha) | weed control effect, Rorippa indica (activity level) (Rorippa indica; Dose 3000 g/ha) | weed control effect, Veronica polita (activity level) (Veronica polita; Dose 3000 g/ha)

Oc1cc(C(F)(F)F)nnc1-c1cncc(Cl)c1 [Compound 770]
10: weed control effect (activity level), Amaranthus retroflexus (Amaranthus retroflexus; Dose 3000 g/ha) | weed control effect (activity level), Chenopodiaceae (Chenopodiaceae; Dose 3000 g/ha) | weed control effect (activity level), Rorippa indica (Rorippa indica; Dose 3000 g/ha) | weed control effect (activity level), Veronica polita (Veronica polita; Dose 3000 g/ha)

O=Cc1ccc(-c2nnc(C(F)(F)F)cc2O)cc1F [Compound 65]
10: weed control effect (activity level), Amaranthus retroflexus (Amaranthus retroflexus; dose 1000 g/ha) | weed control effect (activity level), Chenopodiaceae (Chenopodiaceae; dose 1000 g/ha) | weed control effect (activity level), Rorippa indica (Rorippa indica; dose 1000 g/ha) | weed control effect (activity level), Veronica polita (Veronica polita; dose 1000 g/ha)

CC(C)=NOc1cc(C(F)(F)F)nnc1-c1ccc(F)c(F)c1 [Compound 1-169]
10: weed control effect, Amaranthus retroflexus (activity level) (Amaranthus retroflexus; Dose 3000 g/ha) | weed control effect, Chenopodiaceae (activity level) (Chenopodiaceae; Dose 3000 g/ha) | weed control effect, Rorippa indica (activity level) (Rorippa indica; Dose 3000 g/ha) | weed control effect, Veronica polita (activity level) (Veronica polita; Dose 3000 g/ha)

CC(=O)n1nccc1-c1nnc(C(F)(F)F)cc1O [Compound 834]
10: weed control effect (activity level), Amaranthus retroflexus (Amaranthus retroflexus; Dose 3000 g/ha) | weed control effect (activity level), Chenopodiaceae (Chenopodiaceae; Dose 3000 g/ha) | weed control effect (activity level), Rorippa indica (Rorippa indica; Dose 3000 g/ha) | weed control effect (activity level), Veronica polita (Veronica polita; Dose 3000 g/ha)

CCOc1cc(-c2nnc(C(F)(F)F)cc2O)n(C)n1 [Compound 783]
10: weed control effect (activity level), Amaranthus retroflexus (Amaranthus retroflexus; Dose 3000 g/ha) | weed control effect (activity level), Chenopodiaceae (Chenopodiaceae; Dose 3000 g/ha) | weed control effect (activity level), Rorippa indica (Rorippa indica; Dose 3000 g/ha) | weed control effect (activity level), Veronica polita (Veronica polita; Dose 3000 g/ha)

CSc1ccc(-c2nnc(C(F)(F)F)cc2OC(=O)SCCc2ccccc2)cc1 [Compound 1-103]
10: weed control effect, Amaranthus retroflexus (activity level) (Amaranthus retroflexus; Dose 3000 g/ha) | weed control effect, Chenopodiaceae (activity level) (Chenopodiaceae; Dose 3000 g/ha) | weed control effect, Rorippa indica (activity level) (Rorippa indica; Dose 3000 g/ha) | weed control effect, Veronica polita (activity level) (Veronica polita; Dose 3000 g/ha)

Oc1cc(C(F)(F)F)nnc1-c1ccc(Cl)c(Cl)c1Cl [Compound 753]
10: weed control effect (activity level), Amaranthus retroflexus (Amaranthus retroflexus; Dose 3000 g/ha) | weed control effect (activity level), Chenopodiaceae (Chenopodiaceae; Dose 3000 g/ha) | weed control effect (activity level), Rorippa indica (Rorippa indica; Dose 3000 g/ha) | weed control effect (activity level), Veronica polita (Veronica polita; Dose 3000 g/ha)

Oc1cc(C(F)(F)F)nnc1-c1cccc(Cl)c1F [Compound 45]
10: weed control effect (activity level), Amaranthus retroflexus (Amaranthus retroflexus; dose 1000 g/ha) | weed control effect (activity level), Chenopodiaceae (Chenopodiaceae; dose 1000 g/ha) | weed control effect (activity level), Rorippa indica (Rorippa indica; dose 1000 g/ha) | weed control effect (activity level), Veronica polita (Veronica polita; dose 1000 g/ha)

O=S(=O)(Oc1cc(C(F)(F)F)nnc1-c1ccc(F)cc1)c1ccc(F)cc1 [Compound 1-134]
10: weed control effect, Amaranthus retroflexus (activity level) (Amaranthus retroflexus; Dose 3000 g/ha) | weed control effect, Chenopodiaceae (activity level) (Chenopodiaceae; Dose 3000 g/ha) | weed control effect, Rorippa indica (activity level) (Rorippa indica; Dose 3000 g/ha) | weed control effect, Veronica polita (activity level) (Veronica polita; Dose 3000 g/ha)

Cc1cncc(-c2nnc(C(F)(F)F)cc2O)c1 [Compound 211]
10: weed control effect (activity level), Amaranthus retroflexus (Amaranthus retroflexus; dose 2000 g/ha) | weed control effect (activity level), Chenopodiaceae (Chenopodiaceae; dose 2000 g/ha) | weed control effect (activity level), Rorippa indica (Rorippa indica; dose 2000 g/ha) | weed control effect (activity level), Veronica polita (Veronica polita; dose 2000 g/ha)

COC(=O)CCCCC(=O)Oc1cc(C(F)(F)F)nnc1-c1ccc(F)cc1 [Compound 1-70]
10: weed control effect, Amaranthus retroflexus (activity level) (Amaranthus retroflexus; Dose 3000 g/ha) | weed control effect, Chenopodiaceae (activity level) (Chenopodiaceae; Dose 3000 g/ha) | weed control effect, Rorippa indica (activity level) (Rorippa indica; Dose 3000 g/ha) | weed control effect, Veronica polita (activity level) (Veronica polita; Dose 3000 g/ha)

CCCCCCCCSC(=O)Oc1cc(C(F)(F)F)nnc1-c1ccc(F)cc1 [Compound 1-54]
10: weed control effect, Amaranthus retroflexus (activity level) (Amaranthus retroflexus; Dose 3000 g/ha) | weed control effect, Chenopodiaceae (activity level) (Chenopodiaceae; Dose 3000 g/ha) | weed control effect, Rorippa indica (activity level) (Rorippa indica; Dose 3000 g/ha) | weed control effect, Veronica polita (activity level) (Veronica polita; Dose 3000 g/ha)

Oc1cc(C(F)(F)F)nnc1-c1ccc(OC(F)(F)F)cc1 [Compound 128]
10: weed control effect (activity level), Amaranthus retroflexus (Amaranthus retroflexus; dose 1000 g/ha) | weed control effect (activity level), Chenopodiaceae (Chenopodiaceae; dose 1000 g/ha) | weed control effect (activity level), Rorippa indica (Rorippa indica; dose 1000 g/ha) | weed control effect (activity level), Veronica polita (Veronica polita; dose 1000 g/ha)

Cc1[nH]nc(-c2nnc(C(F)(F)F)cc2O)c1C [Compound 544]
10: weed control effect (activity level), Amaranthus retroflexus (Amaranthus retroflexus; Dose 3000 g/ha) | weed control effect (activity level), Chenopodiaceae (Chenopodiaceae; Dose 3000 g/ha) | weed control effect (activity level), Rorippa indica (Rorippa indica; Dose 3000 g/ha) | weed control effect (activity level), Veronica polita (Veronica polita; Dose 3000 g/ha)

Cn1nc(I)cc1-c1nnc(C(F)(F)F)cc1O [Compound 778]
10: weed control effect (activity level), Amaranthus retroflexus (Amaranthus retroflexus; Dose 3000 g/ha) | weed control effect (activity level), Chenopodiaceae (Chenopodiaceae; Dose 3000 g/ha) | weed control effect (activity level), Rorippa indica (Rorippa indica; Dose 3000 g/ha) | weed control effect (activity level), Veronica polita (Veronica polita; Dose 3000 g/ha)

O=C(Oc1cc(C(F)(F)F)nnc1-c1ccc(F)c(F)c1)c1ccco1 [Compound 1-104]
10: weed control effect, Amaranthus retroflexus (activity level) (Amaranthus retroflexus; Dose 3000 g/ha) | weed control effect, Chenopodiaceae (activity level) (Chenopodiaceae; Dose 3000 g/ha) | weed control effect, Rorippa indica (activity level) (Rorippa indica; Dose 3000 g/ha) | weed control effect, Veronica polita (activity level) (Veronica polita; Dose 3000 g/ha)

Oc1cc(C(F)(F)F)nnc1-c1cccc(Cl)c1Cl [Compound 42]
10: weed control effect (activity level), Amaranthus retroflexus (Amaranthus retroflexus; dose 1000 g/ha) | weed control effect (activity level), Chenopodiaceae (Chenopodiaceae; dose 1000 g/ha) | weed control effect (activity level), Rorippa indica (Rorippa indica; dose 1000 g/ha) | weed control effect (activity level), Veronica polita (Veronica polita; dose 1000 g/ha)

Oc1cc(C(F)(F)F)nnc1-c1cnccc1Br [Compound 968]
10: weed control effect (activity level), Amaranthus retroflexus (Amaranthus retroflexus; Dose 3000 g/ha) | weed control effect (activity level), Chenopodiaceae (Chenopodiaceae; Dose 3000 g/ha) | weed control effect (activity level), Rorippa indica (Rorippa indica; Dose 3000 g/ha) | weed control effect (activity level), Veronica polita (Veronica polita; Dose 3000 g/ha)

Oc1cc(C(F)(F)F)nnc1-c1ccc(Br)cc1 [Compound 28]
10: weed control effect (activity level), Amaranthus retroflexus (Amaranthus retroflexus; dose 1000 g/ha) | weed control effect (activity level), Chenopodiaceae (Chenopodiaceae; dose 1000 g/ha) | weed control effect (activity level), Rorippa indica (Rorippa indica; dose 1000 g/ha) | weed control effect (activity level), Veronica polita (Veronica polita; dose 1000 g/ha)

CSc1cccc(-c2nnc(C(F)(F)F)cc2O)c1 [Compound 95]
10: weed control effect (activity level), Amaranthus retroflexus (Amaranthus retroflexus; dose 1000 g/ha) | weed control effect (activity level), Chenopodiaceae (Chenopodiaceae; dose 1000 g/ha) | weed control effect (activity level), Rorippa indica (Rorippa indica; dose 1000 g/ha) | weed control effect (activity level), Veronica polita (Veronica polita; dose 1000 g/ha)

Oc1cc(C(F)(F)F)nnc1-c1ccnc(Cl)c1Cl [Compound 222]
10: weed control effect (activity level), Amaranthus retroflexus (Amaranthus retroflexus; dose 2000 g/ha) | weed control effect (activity level), Chenopodiaceae (Chenopodiaceae; dose 2000 g/ha) | weed control effect (activity level), Rorippa indica (Rorippa indica; dose 2000 g/ha) | weed control effect (activity level), Veronica polita (Veronica polita; dose 2000 g/ha)

CS(=O)(=O)c1ccc(-c2nnc(C(F)(F)F)cc2O)cc1 [Compound 114]
10: weed control effect (activity level), Amaranthus retroflexus (Amaranthus retroflexus; dose 1000 g/ha) | weed control effect (activity level), Chenopodiaceae (Chenopodiaceae; dose 1000 g/ha) | weed control effect (activity level), Rorippa indica (Rorippa indica; dose 1000 g/ha) | weed control effect (activity level), Veronica polita (Veronica polita; dose 1000 g/ha)

CCSc1ncccc1C(=O)Oc1cc(C(F)(F)F)nnc1-c1ccc(F)c(F)c1 [Compound 1-113]
10: weed control effect, Amaranthus retroflexus (activity level) (Amaranthus retroflexus; Dose 3000 g/ha) | weed control effect, Chenopodiaceae (activity level) (Chenopodiaceae; Dose 3000 g/ha) | weed control effect, Rorippa indica (activity level) (Rorippa indica; Dose 3000 g/ha) | weed control effect, Veronica polita (activity level) (Veronica polita; Dose 3000 g/ha)

Oc1cc(C(F)(F)F)nnc1-c1cc(F)cnc1Cl [Compound 1004]
10: weed control effect (activity level), Amaranthus retroflexus (Amaranthus retroflexus; Dose 3000 g/ha) | weed control effect (activity level), Chenopodiaceae (Chenopodiaceae; Dose 3000 g/ha) | weed control effect (activity level), Rorippa indica (Rorippa indica; Dose 3000 g/ha) | weed control effect (activity level), Veronica polita (Veronica polita; Dose 3000 g/ha)

Oc1cc(C(F)(F)F)nnc1-c1c(Cl)ccnc1Cl [Compound 993]
10: weed control effect (activity level), Amaranthus retroflexus (Amaranthus retroflexus; Dose 3000 g/ha) | weed control effect (activity level), Chenopodiaceae (Chenopodiaceae; Dose 3000 g/ha) | weed control effect (activity level), Rorippa indica (Rorippa indica; Dose 3000 g/ha) | weed control effect (activity level), Veronica polita (Veronica polita; Dose 3000 g/ha)

Oc1cc(C(F)(F)F)nnc1-c1cc(C(F)(F)F)co1 [Compound 418]
10: weed control effect (activity level), Amaranthus retroflexus (Amaranthus retroflexus; Dose 3000 g/ha) | weed control effect (activity level), Chenopodiaceae (Chenopodiaceae; Dose 3000 g/ha) | weed control effect (activity level), Rorippa indica (Rorippa indica; Dose 3000 g/ha) | weed control effect (activity level), Veronica polita (Veronica polita; Dose 3000 g/ha)

Oc1cc(C(F)(F)F)nnc1-c1ccc(I)nc1 [Compound 970]
10: weed control effect (activity level), Amaranthus retroflexus (Amaranthus retroflexus; Dose 3000 g/ha) | weed control effect (activity level), Chenopodiaceae (Chenopodiaceae; Dose 3000 g/ha) | weed control effect (activity level), Rorippa indica (Rorippa indica; Dose 3000 g/ha) | weed control effect (activity level), Veronica polita (Veronica polita; Dose 3000 g/ha)
